Results: publication PMC12365674, “Diverse metabolites with anti-psoriasis potential from different fermentations of the fungicolous fungus Xylarialongipes HFG1018” (IMA Fungus, 2025)
Entries after “also recorded” stand apart in the source; their conditions may differ. Read-outs that look alike come from different tables or passages of the source.

Experiments:
[1] = system: HaCaT cells; experiment: Antiproliferative activity against HaCaT cells (CCK-8); type: cell-based; conditions: read-out: IC50 against the proliferation of HaCaT cells
Protocol: (§1) As previously described, the immunosuppressive activity, lymphocyte viability, and antiproliferative activity against HaCaT cells were evaluated using the CCK-8 method ([Zhao et al. 2023], [2024]).
(§2) In the immunosuppressive and lymphocyte viability, the primary tested concentration of all compounds was 20.0 μM, and dexamethasone (Dex) (c = 2.0 μM) was used as a positive control. In the antiproliferative activity against HaCaT cells, the primary tested concentration of all compounds was 40 μM, and the positive control was methotrexate (MTX) (c = 40.0 μM). When the inhibition rates are greater than 50%, the IC50 values of active compounds will be further tested and calculated. All experiments were performed in triplicate.

[2] = system: ConA-induced T lymphocytes; experiment: Anti-proliferative activity against ConA-induced T lymphocytes (CCK-8); type: cell-based; conditions: Mus musculus, T-lymphocyte; for inhibition at 20 µM: c = 20 μM; for IC50: induced proliferation of T lymphocytes (ConA), CCK-8, read-out: T cells IC50
Protocol: as §1, §2

[3] = system: LPS-induced B lymphocytes; experiment: Anti-proliferative activity against LPS-induced B lymphocytes (CCK-8); type: cell-based, mouse; conditions: Mus musculus, Lymphocyte; for inhibition at 20 µM: c = 20 μM; for IC50: induced proliferation of B lymphocytes (LPS), CCK-8, read-out: B cells IC50
Protocol: as §1, §2

[4] = system: lymphocytes; experiment: Lymphocyte viability (CCK-8); type: cell-based, mouse
Protocol: as §1, §2

[5] = system: ConA-induced T lymphocytes; experiment: Anti-proliferative activity against ConA-induced T lymphocytes (CCK-8); type: cell-based; conditions: Mus musculus, T-lymphocyte, c = 40 μM, read-out: Inhibition rate (%) T
[6] = system: LPS-induced B lymphocytes; experiment: Anti-proliferative activity against LPS-induced B lymphocytes (CCK-8); type: cell-based; conditions: Mus musculus, Lymphocyte, c = 40 μM, read-out: Inhibition rate (%) B
[7] = system: lymphocytes; experiment: Lymphocyte viability (CCK-8); type: cell-based, mouse; conditions: c = 40 μM
[8] = system: induced T cells (Con A 5 μg/mL); experiment: EdU proliferation assay, induced T cells; type: cell-based, mouse; conditions: c = 20 μM; relative to the model group
Protocol: (§3) EdU fluorescence labeling for cell proliferation of induced T/B lymphocytes (2 × 10^5 cells/well) and HaCaT cells (1 × 10^4 cells/well) of active compounds 10, 19, 23, 32, 38, and 41 (final concentration 10 or 20 μM) was performed as previously reported ([Biram and Shulman 2020]; [Zhao et al. 2024]). EdU (HF488) (the Click-iT™ EdU Flow Cytometry Assay Kit, APExBIO, USA) was added 24 h (final concentration 50 μM, T and B cells) and 4 h (final concentration 10 μM, HaCaT cells) before harvesting the cells. All procedures were performed according to the manufacturer’s instructions for the click reaction. EdU-positive cells and proliferating phase cells were analyzed with a fluorescence microscope.

[9] = system: induced B cells (LPS 15 μg/mL); experiment: EdU proliferation assay, induced B cells; type: cell-based, mouse; conditions: c = 20 μM; relative to the model group
Protocol: as §3

[10] = system: IFN-γ; experiment: Cytokine analysis by ELISA of induced T cells: IFN-γ; type: cell-based, mouse; conditions: ConA-induced T cells, 48 h; all sample groups; P < 0.0001 vs. model
Protocol: (§4) The mononuclear cell suspensions (2 × 10^5 cells/well) were cultured with ConA (5 μg/mL) in 96-well plates, and indicated concentrations of compounds 2, 15, and 32 were added simultaneously. After a 48-hour culture period, cytokines in the supernatants were quantified using mouse IFN-γ, IL-2, and IL-17A ELISA kits (Mabtech, Sweden), following the manufacturer’s protocol ([Jing et al. 2021]; [Zhao et al. 2024]).

[11] = system: IL-17A; experiment: Cytokine analysis by ELISA of induced T cells: IL-17A; type: cell-based, mouse; conditions: 40 μM; ConA-induced T cells, 48 h; P < 0.05 vs. model
Protocol: as §4

[12] = Lymphocyte viability (CCK-8); type: cell-based, mouse; conditions: mouse, lymphocytes; lymphocyte viability; CCK-8
Protocol: as §1, §2

[13] = system: HaCaT cells; experiment: EdU proliferation assay, HaCaT cells; type: cell-based; conditions: c = 20 μM; compared to the control group
Protocol: as §3

[14] = system: NF-κB p65 phosphorylation; experiment: Immunofluorescence of p-p65/p65 in HaCaT cells; type: cell-based; conditions: 31.0 μM, 36 h, P < 0.0001 vs. Con
Protocol: The immunofluorescence protocol was performed using the reported method ([Zhao et al. 2024]). HaCaT cells (2.0 × 10^5 cells/well) were plated onto 6-well plates with glass coverslips and adhered overnight (12 h) before compound addition. After treatment with active compounds 10 (final concentration 31 μM) and 32 (final concentration 27 μM) for 36 h, the supernatant was removed, and the cells were washed twice with PBS, fixed with 4% paraformaldehyde for 15 min, and then washed with PBS three times. After blocking, incubated with NF-κB p65 (p65)/phosphorylated NF-κB p65 (p-p65) antibodies and secondary antibodies (Servicebio, China). Then, cells were counterstained with 4,6-[…]-2-phenylindole (DAPI) for 5 min. After the PBS washing, fluorescent seal liquid was added, and the plate was monitored under an imaging system (Pannoramic MIDI, 3Dhistech, Hungary). The nucleus is blue, and positive cells are green (p-p65) or red (p65). The immunofluorescence areas for each indicator were analyzed in ImageJ.

[15] = ConA-induced T lymphocytes, read-out: Inhibition rate (%) T
[16] = LPS-induced B lymphocytes, read-out: Inhibition rate (%) B

Compound: 3-methoxy-2-phenethyl-1H-pyrrole-1-carbaldehyde [Compound 35]
- IC50 [1]: 31.5 ± 2.4 µM

Compound: CC12CCOC(C1)C1=C(CCC3C(C)(C(=O)O)CCCC13C)C2 (stereo not drawn) [Compound 1, 11α,16-Epoxy-isopimar-8(9)-en-19β-oic acid]
- inhibition at 20 µM [2, 15]: 11.4 ± 6.4%
- inhibition at 20 µM [3, 16]: 18.9 ± 7.5%
- Cell validity (%) ([4]; c = 20 μM): 86.3 ± 2.1%
- inhibition at 40 µM [5]: 16.5 ± 1.5%
- inhibition at 40 µM [6]: 20.4 ± 6.3%
- Cell validity (%) [7]: 90.7 ± 4.0%

Compound: C[C@]1(CCO[C@H]2O[C@H](CO)[C@@H](O)[C@H](O)[C@@H]2O)CCC2=C(CC[C@H]3[C@@](C)(C(=O)O)CCC[C@]23C)C1 [Compound 2, 16-α-D-Mannopyranosyloxyisopimar-8(9)-en-19-oic acid]
- inhibition at 20 µM [2, 15]: 23.8 ± 0.9%
- inhibition at 20 µM [3, 16]: 24.9 ± 8.6%
- Cell validity (%) ([4]; c = 20 μM): 100.0 ± 2.4%
- proliferation of induced T cells measured by EdU [8]: significantly suppressed the proliferation
- proliferation of induced B cells measured by EdU [9]: significantly suppressed the proliferation
- IFN-γ secretion [10]: significant reduction; also recorded: significantly reduced
- IL-17A levels [11]: markedly lowered
- inhibition at 40 µM [5]: 32.8 ± 6.8%
- inhibition at 40 µM [6]: 30.6 ± 6.2%
- Cell validity (%) [7]: 89.8 ± 7.9%

Compound: C[C@]1(CCO[C@H]2O[C@H](CO)[C@@H](O)[C@H](O)[C@H]2O)CCC2=C(CC[C@H]3[C@@](C)(C(=O)O)CCC[C@]23C)C1 [Compound 3, 16-α-D-Glucopyranosyloxyisopimar-8(9)-en-19-oic acid]
- inhibition at 20 µM [2, 15]: 15.7 ± 7.9%
- inhibition at 20 µM [3, 16]: 11 ± 4.9%
- Cell validity (%) ([4]; c = 20 μM): 87.7 ± 7.4%
- inhibition at 40 µM [5]: 26.5 ± 3.3%
- inhibition at 40 µM [6]: 22.6 ± 9.6%
- Cell validity (%) [7]: 89.9 ± 4.4%

Compound: CCC1CCc2occc(=O)c2C1O (stereo not drawn) [Compound 9, 6-ethyl-5-hydroxy-5,6,7,8-tetrahydro-4H-chromen-4-one]
- IC50 ([1]; Homo sapiens, HaCaT): 35 ± 3.1 µM

Compound: CCC1=Cc2c(occ(COC)c2=O)CC1 [Compound 10, 6-ethyl-3-(methoxymethyl)-7,8-dihydro-4H-chromen-4-one]
- IC50 [2]: > 20 µM
- IC50 [3]: 8 ± 0.7 µM
- CC50 [12]: > 20 µM
- IC50 ([1]; Homo sapiens, HaCaT): 30.9 ± 2.7 µM
- proliferation rates of HaCaT cells measured by EdU [13]: significantly reduced
- NF-κB activation (ratio p-p65/p65) [14]: significantly attenuated NF-κB activation

Compound: CCc1ccc2occ(COC)c(=O)c2c1 [Compound 11, 6-ethyl-3-(methoxymethyl)-4H-chromen-4-one]
- IC50 [2]: > 20 µM
- IC50 [3]: 20 ± 1.5 µM
- CC50 [12]: > 20 µM

Compound: CC[C@@]1(O)CCc2occ(COC)c(=O)c2[C@@H]1O [Compound 13, (5S,6R)-6-ethyl-5,6-dihydroxy-3-(methoxymethyl)-5,6,7,8-tetrahydro-4H-chromen-4-one]
- IC50 ([1]; Homo sapiens, HaCaT): 31.1 ± 2.6 µM

Compound: C[C@]1(CCO[C@H]2O[C@H](CO)[C@@H](O)[C@H](O)[C@@H]2O)CC[C@H]2C(=CC[C@@H]3[C@]2(C)CCC[C@]3(C)C(=O)O)C1 [Compound 16, 16-α-D-mannopyranosyloxyisopimar-7-en-19-oic acid]
- inhibition at 20 µM [2, 15]: 13.1 ± 2.7%
- inhibition at 20 µM [3, 16]: 19.3 ± 4.6%
- Cell validity (%) ([4]; c = 20 μM): 101.8 ± 6.9%
- inhibition at 40 µM [5]: 20.7 ± 4.3%
- inhibition at 40 µM [6]: 20.5 ± 10.6%
- Cell validity (%) [7]: 96.2 ± 1.1%

Compound: C[C@]1(CCO[C@H]2O[C@H](CO)[C@@H](O)[C@H](O)[C@H]2O)CC[C@H]2C(=CC[C@@H]3[C@]2(C)CCC[C@]3(C)C(=O)O)C1 [Compound 17, 16-α-D-glucopyranosyloxyisopimar-7-en-19-oic acid]
- inhibition at 20 µM [2, 15]: 10.1 ± 4.4%
- inhibition at 20 µM [3, 16]: 11.5 ± 3.1%
- Cell validity (%) ([4]; c = 20 μM): 94.0 ± 5.6%
- inhibition at 40 µM [5]: 16.3 ± 4.3%
- inhibition at 40 µM [6]: 20.7 ± 6.9%
- Cell validity (%) [7]: 100.0 ± 8.5%

Compound: COc1ccc2oc(C)cc(=O)c2c1O [Compound 19, 5-hydroxy-6-methoxy-2-methyl-4H-1-benzopyran-4-one]
- IC50 ([1]; Homo sapiens, HaCaT): 29.7 ± 3.3 µM
- proliferation rates of HaCaT cells measured by EdU [13]: significantly reduced

Compound: COc1cccc2c1C(=O)O[C@@H](C)C2 [Compound 22, (S)-8-methoxy-3-methylisochroman-1-one]
- IC50 ([1]; Homo sapiens, HaCaT): 32.3 ± 1.5 µM

Compound: COc1ccc(O)c2c1C(=O)O[C@@H](C)C2 [Compound 24, (S)-5-hydroxy-8-methoxy-3-methylisochroman-1-one]
- IC50 ([1]; Homo sapiens, HaCaT): 32.5 ± 2 µM

Compound: COC(=O)c1ccc(O)c2c1C[C@@H](C)OC2=O [Compound 25, (R)-(−)-5-methoxycarbonylmellein]
- IC50 ([1]; Homo sapiens, HaCaT): 35.1 ± 1.9 µM

Compound: COC(=O)c1c[nH]c2ccccc12 [Compound 28, 1H-indole-3-carboxylic acid methyl ester]
- IC50 ([1]; Homo sapiens, HaCaT): 29.1 ± 1.7 µM

Compound: C[C@@H]1Cc2c(C(=O)O)ccc(O)c2C(=O)O1 [Compound 30, (R)-5-carboxymellein]
- IC50 ([1]; Homo sapiens, HaCaT): 31.2 ± 4.1 µM

Compound: CC(C)[C@@H](C)CC[C@@H](C)[C@H]1CC[C@H]2C3=C[C@@H](O)[C@@]4(O)C[C@@H](O)CC[C@]4(C)[C@H]3CC[C@]12C [Compound 33, (24S)-ergosta-7-ene-3β,5α,6β-triol]
- IC50 ([1]; Homo sapiens, HaCaT): 33.9 ± 2.8 µM

Compound: CC(C)[C@@H](C)/C=C/[C@@H](C)[C@H]1CC[C@H]2C3=CC(=O)[C@@]4(O)C[C@@H](O)CC[C@]4(C)[C@@]3(O)CC[C@]12C [Compound 34, 3β,5α,9α-trihydroxy-(22E,24R)-ergosta-7,22-dien-6-one]
- IC50 ([1]; Homo sapiens, HaCaT): 32.2 ± 3.4 µM

Compound: c1ccc2c3c([nH]c2c1)CNCC3 [Compound 36, tryptoline]
- IC50 [2]: > 20 µM
- IC50 [3]: 16.7 ± 1.8 µM
- CC50 [12]: > 20 µM

Compound: CC(C)CC1NC(=O)C2CCCN2C1=O [Compound 37, cyclo-((S)-Pro-(R)-Leu))]
- IC50 ([1]; Homo sapiens, HaCaT): 32 ± 2.2 µM

Compound: CCCCCC=C(C(=O)O)C(C)C(=O)O (stereo not drawn) [Compound 40, 2-hexylidene-3-methylsuccinic acid]
- IC50 ([1]; Homo sapiens, HaCaT): 32.9 ± 3.4 µM

Compound: CC(C)C(C)C(OC1OC(CO)C(O)C(O)C1O)C(O)C(C)C1CCC2=C3C=CC4=CC(=O)CCC4(C)C3CCC21C [Compound 41, 22,23-dihydroxy-ergosta-4,6,8(14)-trien-3-one-23-β-D-glucopyranoside]
- IC50 [2]: 12.1 ± 1.7 µM
- IC50 [3]: 16.7 ± 1.9 µM
- CC50 [12]: > 20 µM
- IC50 ([1]; Homo sapiens, HaCaT): 27.7 ± 2.5 µM
- proliferation rates of HaCaT cells measured by EdU [13]: significantly reduced

Compound: C[C@@H]1C[C@H]2[C@@H]3CCC4=CC(=O)C=C[C@]4(C)[C@@]3(F)[C@@H](O)C[C@]2(C)[C@@]1(O)C(=O)CO [Dex, dexamethasone, reference compound]
- inhibition at 2 µM ([2]; c = 2 μM, ConA-induced T lymphocytes, read-out: Inhibition rate (%) T): 45.2 ± 4.9%
- IC50 [2]: 1.9 ± 0.1 µM
- inhibition at 2 µM ([3]; c = 2 μM, LPS-induced B lymphocytes, read-out: Inhibition rate (%) B): 68.6 ± 1.5%
- IC50 [3]: 1 ± 0.05 µM
- CC50 [12]: 0.2 ± 0.04 µM
- Cell validity (%) ([4]; c = 2 μM): 36.9 ± 2.2%

Compound: CN(Cc1cnc2nc(N)nc(N)c2n1)c1ccc(C(=O)N[C@@H](CCC(=O)O)C(=O)O)cc1 [MTX, methotrexate, reference compound]
- IC50 ([1]; Homo sapiens, HaCaT): 26.4 ± 1.4 µM
